Reference: patent US20250034147A1, “MDM2 DEGRADERS AND USES THEREOF” (Kymera Therapeutics, Inc., priority 2021, published 2025)
pIC50: −log10 of the molar value.

Tests used:
RS411 cells = experiment: Cell Viability CTG Assay; format: cell-based; conditions: Homo sapiens, RS4-11, CellTiter Glo (CTG) cell viability, read-out: Average external-IC50
Experimental: Compounds or DMSO 60 nL were stamped to the cell plate as the platemap. RS411 cells were centrifuged at 800 rpm for 5 min, suspended with culture medium, and counted with Countess (Invitrogen). The cell density was adjusted to the recommend information. 30 μL of cell solution (1000 cells/well) was added to the assay plate as the platemap and 30 μL of media was added to column 2 and column 23 as the platemap. The plate was spun down briefly. The final concentration of the compounds started at 10 μM (3 fold dilution and 11 doses) and final DMSO concentration was 0.2%. The plate was spun down briefly and incubated at 37° C., 5% CO2 for 1 day. […] 30 μL CellTiter Glo reagent was added to each well and the plate was centrifuged at 1000 rpm for 30 sec. The plate was shaken for 1 min and centrifuged at 1000 rpm for 30 sec. The plate was incubated at RT for 10 min to stabilize the luminescent signal and the luminescence was read by EnVision.
The letter codes for IC50 indicate the concentration of compound required to affect 50% of cells: A (<0.005 μM), B (0.005-0.05 μM), C (0.05-0.5 μM), and D (>0.5 μM).

HiBiT-tagged MDM2 = molecular target: T1, HiBiT-tagged MDM2 (Homo sapiens, UniProt Q00987); experiment: MDM2 HiBit HEK293T degradation; format: cell-based; conditions: HEK293T cells stably expressing C-terminally HiBiT-tagged MDM2; 4 h; read-out: MDM2 HiBit HEK293T degradation 4 h: Average external-Abs DC50
T1 construct: expressed in transfected cells
Experimental: HEK293T cells were grown overnight to 70-80% confluency in a 6-well plate in complete media (DMEM 10% FBS) in a 37° C. incubator with 5% CO2. Cells were transfected with 1 micrograms of C- or N-terminally HiBiT-tagged MDM2 constructs using Fugene 6 transfection reagent (Promega) as per manufacturer protocol. After overnight incubation at 37° C., growth media within the wells was replaced with selection media (DMEM+10% FBS+1 microgram/ml final concentration of Puromycin). Puromycin (selection antibiotic) concentrations required for complete cell kill were determined previously. Cells were monitored for the next 48h-96h to select for positively transfected cells. Surviving colonies were pooled and expanded in selection media. Expanded pools of HEK293T cells stably expressing C- and N-terminally HiBiT-tagged MDM2, were characterized using a MDM2 tool degrader and HaloPROTAC3 as positive control. HEK293T cells expressing C-terminally HiBiT-tagged MDM2 were subsequently used for assessment of degradation potencies for MDM2 degraders.
The letter codes for MDM2 degradation potency (DC50) include: A (<10 nM), B […], C (>100-1000 nM), and D (>1000 nM).

T1 sequence (Q00987 whole entry): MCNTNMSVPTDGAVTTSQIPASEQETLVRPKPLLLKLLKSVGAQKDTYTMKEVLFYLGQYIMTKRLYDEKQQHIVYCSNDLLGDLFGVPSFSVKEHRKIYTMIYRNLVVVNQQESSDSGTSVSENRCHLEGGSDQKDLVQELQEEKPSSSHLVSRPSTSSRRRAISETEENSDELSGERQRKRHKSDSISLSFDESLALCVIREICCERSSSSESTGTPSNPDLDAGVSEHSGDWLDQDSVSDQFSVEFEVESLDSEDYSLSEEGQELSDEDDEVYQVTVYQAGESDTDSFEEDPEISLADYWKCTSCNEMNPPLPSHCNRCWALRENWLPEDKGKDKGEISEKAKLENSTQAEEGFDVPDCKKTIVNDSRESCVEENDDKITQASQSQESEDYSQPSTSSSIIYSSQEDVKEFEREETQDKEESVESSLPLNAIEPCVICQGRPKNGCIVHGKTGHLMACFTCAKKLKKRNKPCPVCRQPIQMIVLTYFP

| Structure (SMILES) | pIC50 (RS411 cells) | DC50 (HiBiT-tagged MDM2) [nM] |
| --- | --- | --- |
| COc1cc2c(cc1OC(C)C)[C@H](c1ccc(Cl)cc1)N(c1ccc(N(C)C[C@H]3CC[C@H](N(CCS(C)(=O)=O)C(=O)CCCCc4ccc5c(c4)n(C)c(=O)n5C4CCC(=O)NC4=O)CC3)cc1)C(=O)C2 (stereo partly shown) [I-6] | > 8.30 | 10 to 100 |
| CC1(C)CCC2(CC1)NC(C(=O)N[C@H]1CC[C@H](CN3CCN(CCC#Cc4ccn5c(N6CCC(=O)NC6=O)cnc5c4)CC3)CC1)[C@H](c1ccnc(Cl)c1F)[C@]21C(=O)Nc2cc(Cl)ccc21 (stereo partly shown) [I-7] | 7.30 to 8.30 | < 10 |
| Cn1c(=O)n(C2CCC(=O)NC2=O)c2ccc(C#CCC3(C(=O)O)CCN(C[C@H]4CC[C@H](NC(=O)[C@@H]5NC6(CCCCC6)[C@@]6(C(=O)Nc7cc(Cl)ccc76)[C@H]5c5cccc(Cl)c5F)CC4)CC3)cc21 (stereo partly shown) [I-8] | 7.30 to 8.30 | < 10 |
| CC(C)[C@@H](CS(=O)(=O)C(C)C)N1C(=O)[C@@](C)(CC(=O)Nc2ccc(C(=O)N3CCN(CCCc4ccc5c(c4)n(C)c(=O)n5C4CCC(=O)NC4=O)CC3)cc2)C[C@H](c2cccc(Cl)c2)[C@H]1c1ccc(Cl)cc1 (stereo partly shown) [I-9] | 7.30 to 8.30 | 10 to 100 |
| Cn1c(=O)n(C2CCC(=O)NC2=O)c2ccc(CN3CCC(OC4CCN(Cc5ccc(NC(=O)[C@@H]6NC7(CCCCC7)[C@@]7(C(=O)Nc8cc(Cl)ccc87)[C@H]6c6cccc(Cl)c6F)cc5)CC4)CC3)cc21 (stereo partly shown) [I-10] | > 8.30 | < 10 |
| Cn1c(=O)n(C2CCC(=O)NC2=O)c2ccc(CC[C@H]3CN(C[C@H]4CC[C@H](NC(=O)[C@@H]5NC6(CCCCC6)[C@@]6(C(=O)Nc7cc(Cl)ccc76)[C@H]5c5cccc(Cl)c5F)CC4)CCO3)cc21 (stereo partly shown) [I-11] | > 8.30 | < 10 |
| COc1cc2c(cc1OC(C)C)[C@H](c1ccc(Cl)cc1)N(c1ccc(N(C)C[C@H]3CC[C@H](N(CCC(=O)O)C(=O)CCCCc4ccc5c(c4)n(C)c(=O)n5C4CCC(=O)NC4=O)CC3)cc1)C(=O)C2 (stereo partly shown) [I-12] | < 6.30 | 100 to 1000 |
| CN1CCN(C[C@H]2CC[C@H](NC(=O)[C@@H]3NC4(CCCCC4)[C@@]4(C(=O)Nc5cc(Cl)ccc54)[C@H]3c3cccc(Cl)c3F)CC2)C[C@@H]1CCc1ccc2c(c1)n(C)c(=O)n2C1CCC(=O)NC1=O (stereo partly shown) [I-13] | > 8.30 | < 10 |
| CN1[C@@H](C(=O)N[C@H]2CC[C@H](CN3CCC(c4ccc5c(c4)n(C)c(=O)n5C4CCC(=O)NC4=O)CC3)CC2)[C@H](c2ccnc(Cl)c2F)[C@]2(C(=O)Nc3cc(Cl)ccc32)C12CCC(C)(C)CC2 (stereo partly shown) [I-14] | > 8.30 | < 10 |
| Cn1c(=O)n(C2CCC(=O)NC2=O)c2ccc(N3CCN(CC4CCN(C(=O)[C@H]5CC[C@H](NC(=O)[C@@H]6NC7(CCCCC7)[C@@]7(C(=O)Nc8cc(Cl)ccc87)[C@H]6c6cccc(Cl)c6F)CC5)CC4)CC3)cc21 (stereo partly shown) [I-15] | > 8.30 | < 10 |
| Cn1c(=O)n(C2CCC(=O)NC2=O)c2ccc(N3CC4(CCN(C[C@H]5CC[C@H](NC(=O)[C@@H]6NC7(CCCCC7)[C@@]7(C(=O)Nc8cc(Cl)ccc87)[C@H]6c6cccc(Cl)c6F)CC5)CC4)C3)cc21 (stereo partly shown) [I-16] | > 8.30 | < 10 |
| CN1[C@@H](C(=O)N[C@H]2CC[C@H](CN3CCC(c4ccc5c(c4)n(C)c(=O)n5C4CCC(=O)NC4=O)CC3)CC2)[C@H](c2cccc(Cl)c2F)[C@]2(C(=O)Nc3cc(Cl)ccc32)C12CCCCC2 (stereo partly shown) [I-17] | > 8.30 | < 10 |
| Cn1c(=O)n(C2CCC(=O)NC2=O)c2ccc(N3CCC(OC4CCN(C[C@H]5CC[C@H](NC(=O)[C@@H]6NC7(CCCCC7)[C@@]7(C(=O)Nc8cc(Cl)ccc87)[C@H]6c6cccc(Cl)c6F)CC5)CC4)CC3)cc21 (stereo partly shown) [I-18] | > 8.30 | < 10 |
| Cn1c(=O)n(C2CCC(=O)NC2=O)c2ccc(N3CC(N4CCN(C(=O)[C@H]5CC[C@H](NC(=O)[C@@H]6NC7(CCCCC7)[C@@]7(C(=O)Nc8cc(Cl)ccc87)[C@H]6c6cccc(Cl)c6F)CC5)CC4)C3)cc21 (stereo partly shown) [I-19] | 7.30 to 8.30 | < 10 |
| Cn1c(=O)n(C2CCC(=O)NC2=O)c2ccc(CCN3CCN(CCCN4CCC(NC(=O)[C@@H]5NC6(CCC(C)(C)CC6)[C@@]6(C(=O)Nc7cc(Cl)ccc76)[C@H]5c5ccnc(Cl)c5F)CC4)CC3)cc21 (stereo partly shown) [I-20] | > 8.30 | < 10 |
| Cn1c(=O)n(C2CCC(=O)NC2=O)c2ccc(CC[C@@H]3CN(C[C@H]4CC[C@H](NC(=O)[C@@H]5NC6(CCCCC6)[C@@]6(C(=O)Nc7cc(Cl)ccc76)[C@H]5c5cccc(Cl)c5F)CC4)CCO3)cc21 (stereo partly shown) [I-21] | > 8.30 | < 10 |
| COc1cc2c(cc1OC(C)C)[C@H](c1ccc(Cl)cc1)N(c1ccc(N(C)CCC3CCN(CCCCC#Cc4cccn5c(N6CCC(=O)NC6=O)cnc45)CC3)cc1)C(=O)C2 [I-22] | 6.30 to 7.30 | > 1000 |
| Cn1c(=O)n(C2CCC(=O)NC2=O)c2ccc(CN3CCC(OC4CN(C(=O)[C@H]5CC[C@H](NC(=O)[C@@H]6NC7(CCCCC7)[C@@]7(C(=O)Nc8cc(Cl)ccc87)[C@H]6c6cccc(Cl)c6F)CC5)C4)CC3)cc21 (stereo partly shown) [I-23] | > 8.30 | < 10 |
| Cn1c(=O)n(C2CCC(=O)NC2=O)c2ccc(C3CN(C[C@H]4CC[C@H](NC(=O)[C@@H]5NC6(CCCCC6)[C@@]6(C(=O)Nc7cc(Cl)ccc76)[C@H]5c5cccc(Cl)c5F)CC4)C3)cc21 (stereo partly shown) [I-24] | > 8.30 | < 10 |
| Cn1c(=O)n(C2CCC(=O)NC2=O)c2ccc(C3CCN(C[C@H]4CC[C@H](NC(=O)[C@@H]5NC6(CCC(C)(C)CC6)[C@@]6(C(=O)Nc7cc(Cl)ccc76)[C@H]5c5ccnc(Cl)c5F)CC4)CC3)cc21 (stereo partly shown) [I-25] | > 8.30 | < 10 |
| CC1(C)CCC2(CC1)NC(C(=O)N[C@H]1CC[C@H](CN3CCN(CCCc4ccn5c(N6CCC(=O)NC6=O)cnc5c4)CC3)CC1)[C@H](c1ccnc(Cl)c1F)[C@]21C(=O)Nc2cc(Cl)ccc21 (stereo partly shown) [I-26] | > 8.30 | < 10 |
| Cn1c(=O)n(C2CCC(=O)NC2=O)c2ccc(C3CCN(C(=O)CN4CCC(NC(=O)[C@@H]5NC6(CCCCC6)[C@@]6(C(=O)Nc7cc(Cl)ccc76)[C@H]5c5cccc(Cl)c5F)CC4)CC3)cc21 (stereo partly shown) [I-27] | > 8.30 | < 10 |
| CN1[C@@H](C(=O)Nc2ccc(CN3CCC(c4ccc5c(c4)n(C)c(=O)n5C4CCC(=O)NC4=O)CC3)cc2)[C@H](c2cccc(Cl)c2F)[C@]2(C(=O)Nc3cc(Cl)ccc32)C12CCCCC2 (stereo partly shown) [I-28] | > 8.30 | < 10 |
| Cn1c(=O)n(C2CCC(=O)NC2=O)c2ccc(C3CCN(C(=O)CCCN4CCC(NC(=O)[C@@H]5NC6(CCCCC6)[C@@]6(C(=O)Nc7cc(Cl)ccc76)[C@H]5c5cccc(Cl)c5F)CC4)CC3)cc21 (stereo partly shown) [I-29] | 7.30 to 8.30 | 10 to 100 |
| Cn1c(=O)n(C2CCC(=O)NC2=O)c2ccc(CCCN3CCN(C(=O)[C@H]4CC[C@H](NC(=O)[C@@H]5NC6(CCCCC6)[C@@]6(C(=O)Nc7cc(Cl)ccc76)[C@H]5c5cccc(Cl)c5F)CC4)CC3)cc21 (stereo partly shown) [I-30] | > 8.30 | < 10 |
| Cn1c(=O)n(C2CCC(=O)NC2=O)c2ccc(CCN3CCN(C(=O)CN4CCC(NC(=O)[C@@H]5NC6(CCC(C)(C)CC6)[C@@]6(C(=O)Nc7cc(Cl)ccc76)[C@H]5c5ccnc(Cl)c5F)CC4)CC3)cc21 (stereo partly drawn) [I-32, (3′R,4′S,5′R)-6″-chloro-4′-(2-chloro-3-fluoropyridin-4-yl)-N-(1-(2-(4-(2-(1-(2,6-dioxopiperidin-3-yl)-3-methyl-2-oxo-2,3-dihydro-1H-benzo[d]imidazol-5-yl)ethyl)piperazin-1-yl)-2-oxoethyl)piperidin-4-yl)-4,4-dimethyl-2″-oxodispiro[cyclohexane-1,2′-pyrrolidine-3′,3″-indoline]-5′-carboxamide] | > 8.30 | < 10 |
| Cn1c(=O)n(C2CCC(=O)NC2=O)c2ccc(C3CN(Cc4ccc(NC(=O)[C@@H]5NC6(CCCCC6)[C@@]6(C(=O)Nc7cc(Cl)ccc76)[C@H]5c5cccc(Cl)c5F)cc4)C3)cc21 (stereo partly shown) [I-34] | 6.30 to 7.30 | < 10 |
| O=C1CCC(n2c(=O)n(CP(=O)(O)O)c3cc(C4CCN(C(=O)[C@H]5CC[C@H](NC(=O)[C@@H]6NC7(CCCCC7)[C@@]7(C(=O)Nc8cc(Cl)ccc87)[C@H]6c6cccc(Cl)c6F)CC5)CC4)ccc32)C(=O)N1 (stereo partly shown) [I-35] | 6.30 to 7.30 | 100 to 1000 |
| Cn1c(=O)n(C2CCC(=O)NC2=O)c2ccc(C3CCN(C(=O)[C@@H]4CC[C@@H](NC(=O)[C@@H]5NC6(CCCCC6)[C@@]6(C(=O)Nc7cc(Cl)ccc76)[C@H]5c5cccc(Cl)c5F)CO4)CC3)cc21 (stereo partly shown) [I-37] | > 8.30 | < 10 |
